In the NIST ThermoML archive (doi:10.1016/j.fluid.2017.08.022):
Numbers after ± are expanded uncertainties.

Details: for mass density: 100 kPa, Liquid, Buoyancy - hydrostatic balance with magnetic suspension - one sinker

CCn1cc[n+](C)c1.[Cl-] [1-ethyl-3-methylimidazolium chloride]
Details | mass density [kg/m3]
313.38 K | 1134.76 ± 1.2
318.3 K | 1132.06 ± 1.2
323.25 K | 1129.33 ± 1.2
328.1 K | 1126.5 ± 1.2
333.15 K | 1124.02 ± 1.1
338.1 K | 1120.96 ± 1.1
342.86 K | 1118.28 ± 1.1
347.66 K | 1115.32 ± 1.1
353.21 K | 1112.21 ± 1.1
359.06 K | 1109.07 ± 1.1
364.85 K | 1106.29 ± 1.1

surface tension liquid-gas [mN/m]
Details | Ring tensiometer | Wilhelmy Plate
333.2 K | 62.56 ± 1 | 62.6 ± 0.63
338.15 K | 62.12 ± 1 | –
338.24 K | – | 62.26 ± 0.63
343.38 K | 62.16 ± 1 | 61.82 ± 0.62
348.57 K | – | 61.51 ± 0.62
348.58 K | 61.59 ± 1 | –
353.3 K | 61.45 ± 1 | –
353.32 K | – | 61.1 ± 0.61
358.44 K | 60.8 ± 0.99 | –
358.5 K | – | 60.64 ± 0.61
364.76 K | 60.05 ± 0.98 | –
364.96 K | – | 60.2 ± 0.61

Cl.Cn1ccnc1 [1-methylimidazolium chloride]
Details | mass density [kg/m3]
333.65 K | 1195.33 ± 1
338.68 K | 1192.04 ± 1
343.7 K | 1187.98 ± 1
347.72 K | 1186.51 ± 1
353.06 K | 1184.13 ± 1
359.06 K | 1180.78 ± 1
363.86 K | 1177.41 ± 1

surface tension liquid-gas [mN/m]
Details | Ring tensiometer | Wilhelmy Plate
333.66 K | 67.02 ± 1.1 | –
333.67 K | – | 66.84 ± 0.07
338.7 K | 66.37 ± 1.1 | 66.5 ± 0.07
343.19 K | – | 66.13 ± 0.07
343.24 K | 66.48 ± 1.1 | –
348.1 K | 66.18 ± 1.1 | –
348.11 K | – | 65.78 ± 0.07
352.35 K | – | 65.4 ± 0.07
352.38 K | 65.96 ± 1.1 | –
359.12 K | 65.47 ± 1.1 | –
359.17 K | – | 64.87 ± 0.07
363.94 K | 65.12 ± 1.1 | –
364 K | – | 64.58 ± 0.07

CCCCCCCCCCn1cc[n+](C)c1.[Cl-] [1-decyl-3-methylimidazolium chloride]
Details | surface tension liquid-gas [mN/m]
317.84 K, Ring tensiometer | 27.09 ± 0.68
323.12 K, Wilhelmy Plate | 26.44 ± 0.13
323.14 K, Ring tensiometer | 26.85 ± 0.67
328.25 K, Wilhelmy Plate | 26.12 ± 0.13
328.26 K, Ring tensiometer | 26.45 ± 0.67
333.1 K, Wilhelmy Plate | 25.87 ± 0.13
333.13 K, Ring tensiometer | 26.14 ± 0.67
338.32 K, Wilhelmy Plate | 25.57 ± 0.13
338.37 K, Ring tensiometer | 25.54 ± 0.67
342.9 K, Wilhelmy Plate | 25.37 ± 0.13
342.95 K, Ring tensiometer | 25.7 ± 0.67
348.09 K, Wilhelmy Plate | 25.15 ± 0.13
348.13 K, Ring tensiometer | 25.61 ± 0.67
353.32 K, Wilhelmy Plate | 24.85 ± 0.13
353.33 K, Ring tensiometer | 24.76 ± 0.66
358.44 K, Wilhelmy Plate | 24.59 ± 0.12
358.57 K, Ring tensiometer | 24.5 ± 0.66

Details | mass density [kg/m3]
317.88 K | 973.64 ± 0.36
323.19 K | 970.69 ± 0.36
328.33 K | 968.07 ± 0.36
333.2 K | 964.94 ± 0.35
338.44 K | 962.23 ± 0.35
343.26 K | 958.59 ± 0.35
348.19 K | 956.59 ± 0.35
353.38 K | 953.42 ± 0.35
358.17 K | 950.62 ± 0.35
363.44 K | 947.62 ± 0.35

CCC[n+]1ccn(C)c1.[Cl-] [1-methyl-3-propylimidazolium chloride]
surface tension liquid-gas [mN/m]
Details | Ring tensiometer | Wilhelmy Plate
308.21 K | 56.7 ± 1.2 | –
313.04 K | – | 55.61 ± 0.08
313.07 K | 56.45 ± 1.2 | –
318.32 K | 56.27 ± 1.2 | –
318.34 K | – | 55.41 ± 0.08
323.54 K | 55.92 ± 1.2 | 54.98 ± 0.08
328.41 K | – | 54.7 ± 0.08
328.46 K | 55.49 ± 1.2 | –
333.49 K | – | 54.42 ± 0.08
333.5 K | 55.37 ± 1.2 | –
337.95 K | – | 54.09 ± 0.08
338 K | 54.98 ± 1.2 | –
343.39 K | – | 53.8 ± 0.08
343.45 K | 54.58 ± 1.2 | –
348.34 K | – | 53.59 ± 0.08
348.39 K | 54.3 ± 1.2 | –
353.07 K | – | 53.29 ± 0.08
353.11 K | 54.07 ± 1.2 | –
358.45 K | – | 52.95 ± 0.08
358.5 K | 53.69 ± 1.2 | –
363.91 K | 53.27 ± 1.2 | –
364.37 K | – | 52.57 ± 0.08

Details | mass density [kg/m3]
308.26 K | 1103.45 ± 0.44
313.1 K | 1100.71 ± 0.44
318.25 K | 1097.5 ± 0.44
323.58 K | 1094.84 ± 0.44
328.52 K | 1091.95 ± 0.44
333.54 K | 1089.17 ± 0.44
338.03 K | 1086.64 ± 0.44
343.46 K | 1083.12 ± 0.44
348.39 K | 1080.73 ± 0.44
353.12 K | 1078.37 ± 0.44
358.51 K | 1075.69 ± 0.44
363.89 K | 1071.76 ± 0.44
